Assay: Inhibition of rate of ADP-stimulated gel-filtered human platelet aggregation mediated by integrin alphaIIb beta-3 in PLAGGIN assay

Row | Compound | IC50 [µM]
1 | O=C(O)C[C@H](NC(=O)CN1CCN(CCc2ccc3c(n2)NCCC3)C1=O)c1cccnc1 [(S)-3-(2-{2-Oxo-3-[2-(5,6,7,8-tetrahydro-[1,8]naphthyridin-2-yl)-ethyl]-imidazolidin-1-yl}-acetylamino)-3-pyridin-3-yl-propionic acid] | 7.1
2 | O=C(O)C[C@H](NC(=O)CN1CC[C@@H](CCc2ccc3c(n2)NCCC3)C1=O)c1cccnc1 [(S)-3-(2-{(R)-2-Oxo-3-[2-(5,6,7,8-tetrahydro-[1,8]naphthyridin-2-yl)-ethyl]-pyrrolidin-1-yl}-acetylamino)-3-pyridin-3-yl-propionic acid] | > 10
3 | C#C[C@H](CC(=O)O)NC(=O)CN1CC[C@H](CCc2ccc3c(n2)NCCC3)C1=O [(S)-3-(2-{(S)-2-Oxo-3-[2-(5,6,7,8-tetrahydro-[1,8]naphthyridin-2-yl)-ethyl]-pyrrolidin-1-yl}-acetylamino)-pent-4-ynoic acid] | > 10
4 | O=C(O)CCNC(=O)CNC(=O)CCCc1ccc2c(n1)NCCC2 [3-[2-(4-5,6,7,8-Tetrahydro-[1,8]naphthyridin-2-yl-butyrylamino)-acetylamino]-propionic acid] | > 10
5 | O=C(O)C[C@H](NC(=O)CNC(=O)CCCc1ccc2c(n1)NCCC2)c1cccnc1 [(S)-3-Pyridin-3-yl-3-[2-(4-5,6,7,8-tetrahydro-[1,8]naphthyridin-2-yl-butyrylamino)-acetylamino]-propionic acid] | > 10
6 | O=C(O)C[C@H](NC(=O)CN1CCCC(CCc2ccc3c(n2)NCCC3)C1=O)c1cccnc1 (stereo partly drawn) [3-(2-{2-Oxo-3-[2-(5,6,7,8-tetrahydro-[1,8]naphthyridin-2-yl)-ethyl]-piperidin-1-yl}-acetylamino)-3-(S)-pyridin-3-yl-propionic acid] | > 10
7 | O=C(O)C[C@H](NC(=O)CN1CC[C@H](CCc2ccc3c(n2)NCCC3)C1=O)c1cccnc1 [3-(2-{(S)-2-Oxo-3-[2-(5,6,7,8-tetrahydro-[1,8]naphthyridin-2-yl)-ethyl]-pyrrolidin-1-yl}-acetylamino)-3-(S)-pyridin-3-yl-propionic acid] | > 10
8 | C#C[C@H](CC(=O)O)NC(=O)CNC(=O)CCCc1ccc2c(n1)NCCC2 [(S)-3-[2-(4-5,6,7,8-Tetrahydro-[1,8]naphthyridin-2-yl-butyrylamino)-acetylamino]-pent-4-ynoic acid] | > 10

From BindingDB's records for doi:10.1016/s0960-894x(01)00687-4 (Merck Research Laboratories, 2001)
